The target of one assay is human SOS1 (Homo sapiens (Human), UniProt Q07889). As to the kind of experiment: Surface Plasmon Resonance (SPR) SOS1 Binding Assay. To be noted: biotinylated SOS1 (res. 564-1049), Biacore 8K, 25° C., kinetic or steady state fit, 1:1 binding; read-out: hSOS1 KD. As for the experimental part: Binding to SOS1 was measured using a SPR assay with purified recombinant human SOS1 substrate (res. 564-1049 with N-terminal Avi tag; purified and biotinylated based on Hillig, et al., Proc Natl Acad Sci USA (2019); 116(7):2551-2560). SPR measurements were performed on a Biacore 8K SPR instrument (GE Healthcare, Sweden). Assays were performed at 25° C. using Series S SA sensor chips pre-coated with streptavidin (GE Healthcare, Cat. BR100531). Biotinylated SOS1 diluted in sample buffer (20 mM Tris HCI, 150 mM NaCl, 1 mM DTT, 0.05% TWEEN 20, 1 mM MgCh, pH 8.0) was captured to one flow cell of the chip to about 3,000 resonance units (RU) using sample buffer supplemented with 5% DMSO as a running buffer. Serial dilutions of the assayed compounds in the running buffer at 100, 50 or 0.5 µM were injected for 60 s at a flow rate of 30 µL/min and association phases were recorded. Dissociation of the samples was monitored for 600 s. Data processing was performed using Biacore Insight Software (Biacore, GE Healthcare). Sensorgrams recorded on a SA flow cell without captured protein were subtracted from sensorgrams recorded on the SOS1 surface. Blank injections of running buffer were used for double referencing and solvent correction was applied to all sample sensorgrams to correct for buffer mismatches. KDS were estimated using a kinetic or steady state, where applicable, fitting model describing a reversible equilibrium with 1:1 binding between SOS1 and the compound.

Assay [1] addresses SOS1:KRAS (G12C) interaction (Homo sapiens (Human), UniProt Q07889). The assay is described as follows: SOS1 KRas(G12C) FRET Assay. The assay is classed as binding. The following applies: 0.5 nM His10-SOS1 (res. 564-1049), 2.5 nM GST-KRAS G12C (res. 1-169), 2 hrs at RT. In short, it runs like this: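 GST-KRAS G12C (res. 1-169) at 2.5 nM and His10-SOS1 (res. 564-1049) at 0.5 nM, final, in PBS with 0.1% BSA, 5 mM MgCl2, 100 mM KF, 5 mM DTT and 0.5% DMSO. After 2 h at RT, FRET read at 665/615 nm and normalized to DMSO and no-SOS1 controls. IC50 by non-linear regression.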

Sequence of SOS1:KRAS (G12C) interaction (Q07889 564-1049, stated change not applied): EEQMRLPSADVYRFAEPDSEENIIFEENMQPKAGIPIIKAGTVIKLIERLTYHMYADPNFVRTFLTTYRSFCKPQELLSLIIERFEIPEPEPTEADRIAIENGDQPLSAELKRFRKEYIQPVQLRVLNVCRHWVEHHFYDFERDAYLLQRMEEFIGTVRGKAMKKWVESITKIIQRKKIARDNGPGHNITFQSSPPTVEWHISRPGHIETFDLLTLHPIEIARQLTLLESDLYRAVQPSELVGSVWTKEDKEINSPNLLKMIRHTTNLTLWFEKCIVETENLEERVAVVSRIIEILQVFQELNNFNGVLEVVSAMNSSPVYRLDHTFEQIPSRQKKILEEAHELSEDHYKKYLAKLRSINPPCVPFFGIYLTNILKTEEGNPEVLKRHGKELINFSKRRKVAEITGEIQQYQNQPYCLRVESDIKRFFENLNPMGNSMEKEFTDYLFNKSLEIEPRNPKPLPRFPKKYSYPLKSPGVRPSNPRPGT
Sequence of human SOS1 (Q07889 564-1049): as the sequence (Q07889 564-1049, stated change not applied) above

For `C[C@@H](NC(=O)c1cn([C@H]2CC23CC3)c(=O)cc1N[C@H]1[C@@H]2CN(C)C[C@@H]21)c1cccc(C(F)F)c1F` (single isomer, unassigned) [Example 115], the Kd (commonly the free concentration of one partner at which half of the binding sites on the other are occupied at equilibrium, for simple one-to-one binding) at human SOS1 stood at 6 nM. For the same compound, in assay [1], the IC50 – broadly, the concentration at which inhibition is half-maximal – is 14.1 nM.

As to `C[C@@H](NC(=O)c1cn([C@@H]2CC23CC3)c(=O)cc1N[C@H]1[C@@H]2CN(C)C[C@@H]21)c1cccc(C(F)F)c1F` (single isomer, unassigned) [Example 116], at human SOS1, the Kd came out at 11 nM. This compound yielded an IC50 in assay [1] of 26.7 nM.

In the case of `C[C@@H](NC(=O)c1cn([C@H]2CC23CCC3)c(=O)cc1N[C@H]1[C@@H]2CN(C)C[C@@H]21)c1cccc(C(F)F)c1F` (single isomer, unassigned) [Example 117], the Kd on human SOS1 came to 6 nM. The compound also returned an IC50 in assay [1] of 8.5 nM.

For `C[C@@H](NC(=O)c1cn([C@@H]2CC23CCC3)c(=O)cc1N[C@H]1[C@@H]2CN(C)C[C@@H]21)c1cccc(C(F)F)c1F` (single isomer, unassigned) [Example 118], the Kd at human SOS1 amounted to 11 nM. This compound also returned an IC50 in assay [1] of 16.6 nM.

For `C[C@@H](NC(=O)c1cn(C2(C(F)F)CC2)c(=O)cc1N[C@@H]1C[C@@H]2CN(C)C[C@@H]2C1)c1cccc(C(F)F)c1F` (single isomer, unassigned) [Example 124], the Kd on human SOS1 was found to be 13 nM. In addition, in assay [1], the IC50 was determined as 31.4 nM.

In the case of `C[C@@H](NC(=O)c1cn(C23CC(C2)C3)c(=O)cc1N[C@@H]1[C@@H]2CC[C@H]1CN(C)C2)c1cccc(C(F)F)c1F` (single isomer, unassigned) [Example 134], on human SOS1, the Kd is 5 nM. In assay [1], the IC50 turned out to be 9 nM.

Turning to `C[C@@H](NC(=O)c1cn(C23CC(C2)C3)c(=O)cc1N[C@H]1[C@@H]2CC[C@H]1CN(C)C2)c1cccc(C(F)F)c1F` (single isomer, unassigned) [Example 135], on human SOS1, the Kd was 31 nM. For the same compound, in assay [1], the IC50 is 52.1 nM.

In the case of `C[C@@H](NC(=O)c1cn(C2(C(F)(F)F)CC2)c(=O)cc1N[C@@H]1[C@@H]2CC[C@H]1CN(C)C2)c1cccc(C(F)F)c1F` (single isomer, unassigned) [Example 138], the Kd on human SOS1 worked out at 12 nM. In assay [1], this compound yielded an IC50 of 19.7 nM.

As for `C[C@@H](NC(=O)c1cn(C2(C(F)(F)F)CC2)c(=O)cc1N[C@H]1[C@@H]2CC[C@H]1CN(C)C2)c1cccc(C(F)F)c1F` (single isomer, unassigned) [Example 139], at human SOS1, the Kd was determined as 25 nM. For the same compound, in assay [1], the IC50 came out at 49.7 nM.

`C[C@@H](NC(=O)c1cn(C2CC2)c(=O)cc1N[C@@H]1[C@@H]2CC[C@H]1CN(C)C2)c1cccc(C(F)F)c1F` (single isomer, unassigned) [Example 140]: the Kd at human SOS1 turned out to be 7 nM. Also, half-maximal inhibition in assay [1] (IC50) required 15.2 nM.

On to `C[C@@H](NC(=O)c1cn(C2CC2)c(=O)cc1N[C@H]1[C@@H]2CC[C@H]1CN(C)C2)c1cccc(C(F)F)c1F` (single isomer, unassigned) [Example 141], for which the Kd on human SOS1 is 33 nM. The same compound returned an IC50 in assay [1] of 62.8 nM.

Turning to `C[C@@H](NC(=O)c1cn([C@H]2CCC2(F)F)c(=O)cc1N[C@H]1[C@@H]2CN(C)C[C@@H]21)c1cccc(C(F)(F)F)c1F` (single isomer, unassigned) [Example 144], the Kd at human SOS1 worked out at 3 nM. Moreover, in assay [1], the IC50 was found to be 4 nM.

On to `C[C@@H](NC(=O)c1cn([C@@H]2CCC2(F)F)c(=O)cc1N[C@H]1[C@@H]2CN(C)C[C@@H]21)c1cccc(C(F)(F)F)c1F` (single isomer, unassigned) [Example 145], for which, on human SOS1, the Kd amounted to 37 nM. Further, half-maximal inhibition in assay [1] (IC50) required 35.2 nM.

With `C[C@@H](NC(=O)c1cn([C@H]2CCC2(F)F)c(=O)cc1N[C@H]1[C@@H]2CN(C)C[C@@H]21)c1cccc(C(C)(F)F)c1F` (single isomer, unassigned) [Example 148], the Kd at human SOS1 turned out to be 6 nM. Further, in assay [1], half-maximal inhibition (IC50) required 7.4 nM.

As to `C[C@@H](NC(=O)c1cn([C@@H]2CCC2(F)F)c(=O)cc1N[C@H]1[C@@H]2CN(C)C[C@@H]21)c1cccc(C(C)(F)F)c1F` (single isomer, unassigned) [Example 149], the Kd on human SOS1 was found to be 56 nM. In assay [1], this compound displayed an IC50 of 61.6 nM.

As to `C[C@@H](NC(=O)c1cn([C@@]2(C)CCOC2)c(=O)cc1N[C@H]1[C@@H]2CN(C)C[C@@H]21)c1cccc(C(F)F)c1F` (single isomer, unassigned) [Example 151], the Kd on human SOS1 came out at 12 nM. The IC50 in assay [1] came out at 47.3 nM.

On to `Cc1c([C@@H](C)NC(=O)c2cn(C3CCOCC3)c(=O)cc2NCCN(C)C)cccc1C(F)(F)F` [Example 2, (R)-4-((2-(dimethylamino)ethyl)amino)-N-(1-(2-methyl-3-(trifluoromethyl)phenyl)ethyl)-6-oxo-1-(tetrahydro-2H-pyran-4-yl)-1,6-dihydropyridine-3-carboxamide], for which, on human SOS1, the Kd was 27 nM. Besides, the IC50 in assay [1] was 59.6 nM.

With `Cc1c([C@@H](C)NC(=O)c2cn(C3CCOCC3)c(=O)cc2N[C@@H]2CCN(C)C2)cccc1C(F)(F)F` [Example 3, N-((R)-1-(2-methyl-3-(trifluoromethyl)phenyl)ethyl)-4-(((R)-1-methylpyrrolidin-3-yl)amino)-6-oxo-1-(tetrahydro-2H-pyran-4-yl)-1,6-dihydropyridine-3-carboxamide], the Kd at human SOS1 was 16 nM. In addition, the IC50 in assay [1] came out at 41.2 nM.

As to `Cc1c([C@@H](C)NC(=O)c2cn(C3CCOCC3)c(=O)cc2N[C@H]2CCN(C)C2)cccc1C(F)(F)F` [Example 4, N-((R)-1-(2-methyl-3-(trifluoromethyl)phenyl)ethyl)-4-(((S)-1-methylpyrrolidin-3-yl)amino)-6-oxo-1-(tetrahydro-2H-pyran-4-yl)-1,6-dihydropyridine-3-carboxamide], the Kd at human SOS1 was determined as 16 nM. In addition, in assay [1], the IC50 stood at 45.9 nM.

As for `Cc1c([C@@H](C)NC(=O)c2cn(C3CCOCC3)c(=O)cc2N[C@@H]2CCCN(C)C2)cccc1C(F)(F)F` [Example 5, N-((R)-1-(2-methyl-3-(trifluoromethyl)phenyl)ethyl)-4-(((R)-1-methylpiperidin-3-yl)amino)-6-oxo-1-(tetrahydro-2H-pyran-4-yl)-1,6-dihydropyridine-3-carboxamide], the equilibrium dissociation constant (Kd) on human SOS1 was 20 nM. In addition, the IC50 in assay [1] was found to be 35.5 nM.

As for `Cc1c([C@@H](C)NC(=O)c2cn(C3CCOCC3)c(=O)cc2N[C@H]2CCCN(C)C2)cccc1C(F)(F)F` [Example 6, N-((R)-1-(2-methyl-3-(trifluoromethyl)phenyl)ethyl)-4-(((S)-1-methylpiperidin-3-yl)amino)-6-oxo-1-(tetrahydro-2H-pyran-4-yl)-1,6-dihydropyridine-3-carboxamide], the Kd at human SOS1 is 30 nM. This compound also returned an IC50 in assay [1] of 56.7 nM.

Regarding `Cc1c([C@@H](C)NC(=O)c2cn(C3CCOCC3)c(=O)cc2N[C@H]2C[C@H](N(C)C)C2)cccc1C(F)(F)F` [Example 7, 4-(((1r,3R)-3-(dimethylamino)cyclobutyl)amino)-N-((R)-1-(2-methyl-3-(trifluoromethyl)phenyl)ethyl)-6-oxo-1-(tetrahydro-2H-pyran-4-yl)-1,6-dihydropyridine-3-carboxamide], the Kd at human SOS1 came to 20 nM. The compound also registered an IC50 in assay [1] of 53.4 nM.

In the case of `Cc1c([C@@H](C)NC(=O)c2cn(C3CCOCC3)c(=O)cc2NCC2CN(C)C2)cccc1C(F)(F)F` [Example 8, (R)-N-(1-(2-methyl-3-(trifluoromethyl)phenyl)ethyl)-4-(((1-methylazetidin-3-yl)methyl)amino)-6-oxo-1-(tetrahydro-2H-pyran-4-yl)-1,6-dihydropyridine-3-carboxamide], the Kd on human SOS1 was determined as 12 nM. Further, in assay [1], inhibition was half-maximal at 48.6 nM (IC50).

As for `Cc1c([C@@H](C)NC(=O)c2cn(C3CCOCC3)c(=O)cc2NCCCN(C)C)cccc1C(F)(F)F` [Example 9, (R)-4-((3-(dimethylamino)propyl)amino) -N-(1-(2-methyl-3-(trifluoromethyl)phenyl)ethyl)-6-oxo-1-(tetrahydro-2H-pyran-4-yl)-1,6-dihydropyridine-3-carboxamide], on human SOS1, the Kd worked out at 17 nM. Also, half-maximal inhibition in assay [1] (IC50) was put at 39 nM.

On to `Cc1c([C@@H](C)NC(=O)c2cn(C3CCOCC3)c(=O)cc2NCc2cncn2C)cccc1C(F)(F)F` [Example 10, (R)-4-(((1-methyl-1H-imidazol-5-yl)methyl)amino)-N-(1-(2-methyl-3-(trifluoromethyl)phenyl)ethyl)-6-oxo-1-(tetrahydro-2H-pyran-4-yl)-1,6-dihydropyridine-3-carboxamide], for which the Kd on human SOS1 was 74 nM. In assay [1], this compound came in with an IC50 of 73 nM.

With `CNc1cc(=O)n(C2CCOCC2)cc1C(=O)N[C@H](C)c1cccc(C(F)(F)F)c1C` [Example 12, (R)-N-(1-(2-methyl-3-(trifluoromethyl)phenyl)ethyl)-4-(methylamino)-6-oxo-1-(tetrahydro-2H-pyran-4-yl)-1,6-dihydropyridine-3-carboxamide], at human SOS1, the Kd worked out at 245 nM. Besides, in assay [1], it took 705 nM to reach half-maximal inhibition (IC50).

Values taken from US20230348424A1, “HETEROCYCLIC COMPOUNDS AND METHODS OF USE” (Schrödinger, Inc., priority 2022, published 2023).
